Results on 1 substance are retold here after patent publication US4550186A, “Binuclear copper (II) carboxylates formed from amine-carboxyboranes” (Duke University, priority 1983, dated 1985).

The subject of assay [1] is thymidylate monophosphate, diphosphate and triphosphate levels of Ehrlich ascites cells. Put plainly: In vivo thymidine incorporation into nucleotide pools. Further details: species or system mouse. Here is the method: (§1) CF1 male mice (~30 g) were implanted with 2×10^6 Ehrlich ascites tumor cells, intraperitoneally on Day 0. Compound I was suspended by homogenation in 0.05% polysorbate.80-water and administered intraperitoneally at 10 and 20 mg/kg for 9 days to determine its effectiveness for inhibition of tumor growth. Mice were sacrificed on Day 10, and the ascites fluid was collected from the peritoneal cavity. The volume and ascrit (packed cell volume) were determined for each animal and the percent inhibition of tumor growth was calculated. For the metabolic studies, mice were treated on Days 8 and 9 with 10 mg/kg of Compound I, intraperitoneally. The animal was sacrificed on Day 10 and the ascites fluid harvested. The in vitro metabolic studies were performed at 0.25, 0.50 and 1 mmol final concentration of Compound I.
Deoxythymidine as well as deoxythymidylate monophosphate and diphosphate kinase activities were measured spectrophotometrically at 340 nm at 30 min using reduced nicotinamide adenine dinucleotide (0.1 μmole). Thymidine incorporation (6-^3 H - 21.5 Ci/mmol) into nucleotides was measured using the medium of Maley and Ochoa [J. Biol. Chem., 223, 1538 (1958)]. The reaction medium was extracted with ether and the aqueous layer plated on PEI cellulose F plates and eluted with 0.5N formic acid: 0.6M LiCl (1:1). Areas which correlated with Rf values of thymidine, thymidylate monophosphate, diphosphate and triphosphate standards were scraped and counted.
On the technique in general: Dividing cells build labelled thymidine or BrdU into new DNA.

A further assay has as its target thymidylate synthetase (Mus musculus, UniProt P07607). Description: In vitro thymidylate synthetase activity. The class given is biochemical. To be noted: 0.25 to 1.0 mM. Here is the method:
as §1, with “The animal was sacrificed on Day 10 and the ascites fluid harvested. The in vitro metabolic studies were performed at 0.25, 0.50 and 1 mmol final concentration of Compound I.” left out
Carbamyl phosphate synthetase activity was determined using the reaction medium of Kalman et al [Am. […] Citrulline formed from ornithine was measured at 490 nm by the method of Archibald [J. Biol. Chem., 156, 121 (1944)]. […] The ^14 CO2 generated in 15 min was trapped in 1M KOH and counted. Thymidylate synthetase activity was determined using a post-mitochondrial supernatant (9000 g×10 min) and 5 μCi of 5-^3 H-deoxyuridine monophosphate (14 Ci/mmol) according to the method of Kampf et al [ J. Med. Chem., 19, 903 (1976)]. ^14 C-Formate incorporation into purines was determined by the method of Spassova et al [Biochem. Pharmacol., 25, 923 (1976)] using 0.5 μCi of ^14 C-formic acid (52.0 mCi/mmol). […] The Rf value for xanthine monophosphate was scraped and counted. […]

Setting [2] is: 10 mg/kg/day I.P. on Days 8 and 9.

thymidylate synthetase, sequence (P07607 whole entry): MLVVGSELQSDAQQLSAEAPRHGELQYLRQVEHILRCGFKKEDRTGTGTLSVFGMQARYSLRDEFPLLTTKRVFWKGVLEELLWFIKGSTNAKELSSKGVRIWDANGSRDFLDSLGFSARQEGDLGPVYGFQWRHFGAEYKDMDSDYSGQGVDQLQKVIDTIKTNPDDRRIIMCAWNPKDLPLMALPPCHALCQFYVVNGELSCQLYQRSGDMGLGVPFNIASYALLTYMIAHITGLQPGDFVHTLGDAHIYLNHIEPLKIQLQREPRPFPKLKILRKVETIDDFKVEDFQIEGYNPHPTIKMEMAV

As for “{Cu[(CH3)3 N.BH2 CO2 ]2.(CH3)3 N.BH2 COOH} [Compound I]”, in assay [1], the “3H-Thymidine incorporation into thymidylate monophosphate pool reduced” value is 57%, the TDP pool reduced was 19% and the TTP pool reduced was found to be 10%. In assay [1] (setting [2]), this substance showed a Thymidylate diphosphate levels of 89 ± 11 % Control, a Thymidylate monophosphate levels of 43 ± 6 % Control and a Thymidylate triphosphate levels of 90 ± 10 % Control. Besides, the thymidylate synthetase inhibition result at thymidylate synthetase was “not inhibited”.
